Assays:
ovine COX-1 = target: T1, ovine COX-1 (Ovis aries, UniProt P05979); assay: Cyclooxygenase inhibition assay (COX Fluorescent Inhibitor Screening Assay Kit), COX-1; format: biochemical
T1 construct: purchased Cayman Chemical 700100
T1 sequence (P05979 25-600): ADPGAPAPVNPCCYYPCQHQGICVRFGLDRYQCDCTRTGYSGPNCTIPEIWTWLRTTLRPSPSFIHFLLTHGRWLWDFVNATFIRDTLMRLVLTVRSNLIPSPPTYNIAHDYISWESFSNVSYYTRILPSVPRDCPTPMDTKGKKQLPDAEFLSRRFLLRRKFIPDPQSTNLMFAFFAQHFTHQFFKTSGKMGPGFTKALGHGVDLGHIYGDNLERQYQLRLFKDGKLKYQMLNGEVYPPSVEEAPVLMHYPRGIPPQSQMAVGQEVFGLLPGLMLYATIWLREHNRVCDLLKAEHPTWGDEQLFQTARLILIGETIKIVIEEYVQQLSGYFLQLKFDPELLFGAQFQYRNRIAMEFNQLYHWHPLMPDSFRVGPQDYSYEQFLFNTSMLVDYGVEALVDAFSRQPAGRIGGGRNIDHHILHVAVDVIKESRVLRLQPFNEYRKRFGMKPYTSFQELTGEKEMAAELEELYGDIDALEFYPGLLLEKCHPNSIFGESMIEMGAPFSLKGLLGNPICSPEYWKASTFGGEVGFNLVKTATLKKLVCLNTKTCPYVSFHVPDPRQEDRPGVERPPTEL
Description: (§1) Stock solutions of test compounds are dissolved in a minimum volume of DMSO. 10 μl of various concentrations of the test compound solutions, e.g., [I]final between 0.01 and 100 μM, are added to a series of supplied reaction buffer solutions (150 μl, 100 mM Tris-HCl, pH 8.0) with either COX-1 or COX-2 (10 μl) enzyme in the presence of Heme (10 μl) and a fluorometric substrate (10 μl). The reactions are initiated by quickly adding 10 μl of arachidonic acid solution and then incubating the system for two minutes at room temperature. […] The intensity of this fluorescence is proportional to the amount of resorufin, which is proportional to the amount of PGG2 present in the well during the incubation. Percent inhibition is calculated by comparison from the 100% initial activity sample value (no inhibitor).
as §1, with “compounds were” for “compounds are”, “μM, were” for “μM, are”, “reactions were” for “reactions are”, “then incubated” for “then incubating the system”, “inhibition was” for “inhibition is”

HepG2 cells = assay: HepG2 cell viability analysis (MTT); format: cell-based
Description: Cells were plated at 10,000 cell per well in 96-well plates and allowed to attach overnight under the growth conditions described above. […] These compounds were dissolved in 100% DMSO and diluted with EMEM to the desired concentration of 0.1 μM, 1.0 μM, 10 μM, 25 μM, and 50 μM, with a final DMSO concentration of 0.1% for all cell-based in vitro studies. All studies included DMSO as a solvent control. Cell viability was determined using the MTT Cell Viability Assay Kit from ATCC according to manufacturer's instructions. The 96-well plates were measure at 570 nm using SpectroMax 190 plate reader (Molecular Devices, Sunnyvale, Calif.). […] Each concentration was performed in triplicate per 96-well plate and EC50 data are presented as the mean±standard deviation from at least 3 separate experiments performed on separate days.

[1] = system: VEGF-induced angiogenesis; assay: In vivo angiogenesis assay (Matrigel plug); conditions: C57BL/6 mice, n=6 per group, FIG. 15
Description: Male C57BL/6 mice were purchased from Charles River Lab. After acclimation for 1 wk in a standard animal facility, the animals were lightly anesthesized using 1-4% isoflurane in oxygen (2 L/min) and placed on a heated stage to maintain body temperature at 37° C. Growth-factor reduced Matrigel (0.5 mL, BD Biosciences, San Jose, Calif.) mixed with 100 ng mouse VEGF 164 (R&D Systems, Minneapolis, Minn.), 20 U heparin (APP Pharmaceuticals, Schaumburg, Ill.), with or without test compounds were subcutaneously injected into the mice at the abdominal area. Each mouse was injected with two gels (with/without test compounds) symmetrically in the abdomen. After 4-7 days, the animals were euthanized and dissected to recover the implanted Matrigel plugs. Hemoglobin contents inside the Matrigel implants were analyzed by Drabkin's reagent (Sigma-Aldrich, St. Louis, Mont.).

Met-1 breast cancer = assay: In vivo Met-1 tumor growth; conditions: FVB mice, 0.1 mg/kg/day by mini-pump, FIG. 16
Text: Cells derived from highly metastatic breast cancer Met-1 will be transplanted into the fat pads of FVB female mice. […] Over this period, animals will be checked 3 times per week with ultrasound to mark changes in tumor growth and size. Ultrasound contrast agent microbubbles will also be administered during each ultrasound session by IV injection to track changes in tumor vasculature (Invest Radiol 46, 215-224).

NS(=O)(=O)c1ccc(-n2nc(CCCNC(=O)Nc3ccc(C(F)(F)F)cc3)cc2-c2ccccc2)cc1 [Compound 21i, 4-(5-Phenyl-3-{3-[3-(4-trifluoromethyl-phenyl)-ureido]-propyl}-pyrazol-1-yl)-benzenesulfonamide]
IC50 (ovine COX-1): > 100 µM | inhibition at 100 µM (ovine COX-1; read-out: COX-1 (% inhibition)): 22.7% | EC50 (HepG2 cells; Homo sapiens, HepG2, MTT after 24 hours of incubation): 4.5 ± 0.5 µM | Effect on HepG2 cell viability (killing cancer cells), in words (HepG2 cells; dose dependence, FIG. 9): more efficient than Celecoxib in combination or not with t-TUCB in killing the cancer cells | VEGF-induced angiogenesis, hemoglobin content inside the Matrigel, in words [1]: inhibits VEGF-induced angiogenesis | Primary tumor growth of Met-1 breast cancer, in words (Met-1 breast cancer): inhibits primary tumor growth

From patent US9096532B2, “Pyrazole inhibitors of COX-2 and sEH” (The Regents of the University of California, priority 2010, dated 2015)
